Each molecule was assayed against human NaV 1.8 (Homo sapiens, UniProt Q9Y5Y9) (assay: E-VIPR assay detecting and measuring NaV inhibition properties). Conditions: HEK cells expressing truncated human NaV 1.8; in the presence of human serum (compound numbers followed by *); read-out: IC50 in the E-VIPR Assay, performed in the presence of human serum.
Format: cell-based
How it was run: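 HEK cells expressing truncated, fully active human NaV1.8, with KIR2.1 BacMam co-transduction, were loaded with CC2-DMPE/DiSBAC6(3) voltage-sensing dyes for 20 min at room temperature. Compounds were tested in 11-point 3-fold dilutions (300 nM top final), optionally with 25% human serum, under electrical stimulation with FRET read-out.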

human NaV 1.8, sequence (Q9Y5Y9 126-399 limits assumed): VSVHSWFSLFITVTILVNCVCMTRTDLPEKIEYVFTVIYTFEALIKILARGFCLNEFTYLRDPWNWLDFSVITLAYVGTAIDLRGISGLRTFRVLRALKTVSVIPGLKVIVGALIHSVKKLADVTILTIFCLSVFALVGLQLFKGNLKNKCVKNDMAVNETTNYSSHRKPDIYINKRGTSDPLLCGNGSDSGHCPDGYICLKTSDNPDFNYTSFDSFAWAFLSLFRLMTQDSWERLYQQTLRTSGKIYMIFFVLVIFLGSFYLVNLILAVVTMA
human NaV 1.8, sequence (Q9Y5Y9 660-890 limits assumed): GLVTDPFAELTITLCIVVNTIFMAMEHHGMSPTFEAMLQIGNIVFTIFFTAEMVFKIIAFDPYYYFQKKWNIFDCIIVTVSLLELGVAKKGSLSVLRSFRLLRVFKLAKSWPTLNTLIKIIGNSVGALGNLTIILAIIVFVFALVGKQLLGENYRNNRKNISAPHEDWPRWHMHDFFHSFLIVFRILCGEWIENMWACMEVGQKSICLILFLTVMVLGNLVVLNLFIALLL
human NaV 1.8, sequence (Q9Y5Y9 1148-1722 limits assumed): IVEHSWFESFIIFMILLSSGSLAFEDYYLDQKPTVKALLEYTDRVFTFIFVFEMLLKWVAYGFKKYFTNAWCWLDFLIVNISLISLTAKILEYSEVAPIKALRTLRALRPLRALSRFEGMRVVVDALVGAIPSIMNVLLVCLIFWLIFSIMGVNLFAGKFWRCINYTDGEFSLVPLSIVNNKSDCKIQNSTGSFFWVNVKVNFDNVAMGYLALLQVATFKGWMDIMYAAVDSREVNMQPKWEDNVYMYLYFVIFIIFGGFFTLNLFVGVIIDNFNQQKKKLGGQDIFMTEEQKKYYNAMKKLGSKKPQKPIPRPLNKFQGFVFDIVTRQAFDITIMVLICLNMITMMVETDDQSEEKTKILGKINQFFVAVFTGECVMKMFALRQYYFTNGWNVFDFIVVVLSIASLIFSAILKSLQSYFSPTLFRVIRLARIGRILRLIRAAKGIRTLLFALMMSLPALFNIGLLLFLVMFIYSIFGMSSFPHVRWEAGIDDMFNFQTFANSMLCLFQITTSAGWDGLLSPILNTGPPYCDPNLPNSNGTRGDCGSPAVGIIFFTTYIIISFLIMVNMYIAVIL

Compound | IC50 [nM]
COc1c(C2C(C(=O)Nc3ccnc(C(C)(O)CO)c3)OC(C)(C)C2C)ccc(F)c1F (single isomer, unassigned) [Compound 725, rel-3-(3,4-difluoro-2-methoxyphenyl)-N-(2-(1,2-dihydroxypropan-2-yl)pyridin-4-yl)-4,5,5-trimethyltetrahydrofuran-2-carboxamide] | ≥ 1000
COc1c(C2CC(C)(C(F)(F)F)OC2C(=O)Nc2ccnc(C(O)C(C)O)c2)ccc(F)c1F (single isomer, unassigned) [Compound 694] | 10 to 100
COc1c([C@@H]2[C@@H](C(=O)Nc3ccnc([S+](C)[O-])c3)O[C@](C)(C(F)(F)F)[C@@H]2C)ccc(F)c1F (single isomer, unassigned) [Compound 6] | ≥ 1000

Same assay, conditions: HEK cells expressing truncated human NaV 1.8; no human serum; read-out: IC50 in the E-VIPR Assay

IC50 [nM] | Compound
≥ 1000 | COc1c([C@H]2[C@H](C(=O)NC3(Cc4ccccc4)CC3)O[C@@](C)(C(F)(F)F)[C@H]2C)ccc(F)c1F [Compound 291, (2R,3S,4S,5R)-N-(1-benzylcyclopropyl)-3-(3,4-difluoro-2-methoxyphenyl)-4,5-dimethyl-5-(trifluoromethyl)tetrahydrofuran-2-carboxamide]
≥ 1000 | COc1c([C@H]2[C@H](C(=O)NCC(O)c3cnn(C)c3)O[C@@](C)(C(F)(F)F)[C@H]2C)ccc(F)c1F (stereo partly drawn) [Compound 301, (2R,3S,4S,5R)-3-(3,4-difluoro-2-methoxyphenyl)-N-(2-hydroxy-2-(1-methyl-1H-pyrazol-4-yl)ethyl)-4,5-dimethyl-5-(trifluoromethyl)tetrahydrofuran-2-carboxamide]
10 to 100 | COc1c([C@H]2[C@H](C(=O)Nc3ccnc(N4CCC(N(C)C)C4=O)c3)O[C@@](C)(C(F)(F)F)[C@H]2C)ccc(F)c1F (single isomer, unassigned) [Compound 507, rel-(2R*,3S*,4S*,5R*)-3-(3,4-difluoro-2-methoxyphenyl)-N-(2-(3-(dimethylamino)-2-oxopyrrolidin-1-yl)pyridin-4-yl)-4,5-dimethyl-5-(trifluoromethyl)tetrahydrofuran-2-carboxamide]
10 to 100 | C[C@H]1[C@@H](c2ccc(F)c(F)c2OCCO)[C@H](C(=O)Nc2cnsc2)O[C@@]1(C)C(F)(F)F [Compound 572, (2R,3S,4S,5R)-3-(3,4-difluoro-2-(2-hydroxyethoxy)phenyl)-N-(isothiazol-4-yl)-4,5-dimethyl-5-(trifluoromethyl)tetrahydrofuran-2-carboxamide]
≥ 1000 | COc1c([C@H]2[C@H](C(=O)Nc3cc4n(n3)CCOC4)O[C@@](C)(C(F)(F)F)[C@H]2C)ccc(F)c1F [Compound 321, (2R,3S,4S,5R)-3-(3,4-difluoro-2-methoxyphenyl)-N-(6,7-dihydro-4H-pyrazolo[5,1-c][1,4]oxazin-2-yl)-4,5-dimethyl-5-(trifluoromethyl)-tetrahydrofuran-2-carboxamide]
10 to 100 | Cc1nn(C(F)F)cc1NC(=O)[C@@H]1O[C@@](C)(C(F)(F)F)[C@@H](C)[C@H]1c1ccc(F)c(F)c1CN(C)C1CCOCC1 [Compound 669, (2R,3S,4S,5R)-3-(3,4-difluoro-2-((methyl(tetrahydro-2H-pyran-4-yl)amino)methyl)phenyl)-N-(1-(difluoromethyl)-3-methyl-1H-pyrazol-4-yl)-4,5-dimethyl-5-(trifluoromethyl)tetrahydrofuran-2-carboxamide]
≥ 1000 | Cc1nn(C(F)F)cc1NC(=O)[C@@H]1O[C@@](C)(C(F)(F)F)[C@@H](C)[C@H]1c1ccc(F)c(F)c1OCC(=O)O [Compound 603, 2-(6-((2R,3S,4S,5R)-2-((1-(difluoromethyl)-3-methyl-1H-pyrazol-4-yl)carbamoyl)-4,5-dimethyl-5-(trifluoromethyl)tetrahydrofuran-3-yl)-2,3-difluorophenoxy)acetic acid]
≥ 1000 | Cc1nn(C(F)F)cc1NC(=O)[C@@H]1O[C@@](C)(C(F)(F)F)[C@@H](C)[C@H]1c1ccc(F)c(F)c1CCN1CC2(COC2)C1 [Compound 679, (2R,3S,4S,5R)-N-[1-(difluoromethyl)-3-methyl-pyrazol-4-yl]-3-[3,4-difluoro-2-[2-(2-oxa-6-azaspiro[3.3]heptan-6-yl)ethyl]phenyl]-4,5-dimethyl-5-(trifluoromethyl)tetrahydrofuran-2-carboxamide]
< 10 | COc1c([C@H]2[C@H](C(=O)Nc3cc(C(O)CN(C)C)ncc3F)O[C@@](C)(C(F)(F)F)[C@H]2C)ccc(F)c1F (single isomer, unassigned) [Compound 370, rel-(2R*,3S*,4S*,5R*)-3-(3,4-difluoro-2-methoxyphenyl)-N-(2-(2-(dimethylamino)-1-hydroxyethyl)-5-fluoropyridin-4-yl)-4,5-dimethyl-5-(trifluoromethyl)tetrahydrofuran-2-carboxamide]
100 to 1000 | COCCOc1c([C@H]2[C@H](C(=O)Nc3cnn(CC(C)(C)O)c3)O[C@@](C)(C(F)(F)F)[C@H]2C)ccc(F)c1F [Compound 583, (2R,3S,4S,5R)-3-(3,4-difluoro-2-(2-methoxyethoxy)phenyl)-N-(1-(2-hydroxy-2-methylpropyl)-1H-pyrazol-4-yl)-4,5-dimethyl-5-(trifluoromethyl)tetrahydrofuran-2-carboxamide]
10 to 100 | COCC(C)(C)NCc1cc(NC(=O)[C@@H]2O[C@@](C)(C(F)(F)F)[C@@H](C)[C@H]2c2ccc(F)c(F)c2OC)ccn1 [Compound 410, (2R,3S,4S,5R)-3-(3,4-difluoro-2-methoxyphenyl)-N-(2-(((1-methoxy-2-methylpropan-2-yl)amino)methyl)-pyridin-4-yl)-4,5-dimethyl-5-(trifluoromethyl)-tetrahydrofuran-2-carboxamide]

Second part, the molecule before the results:

Compound | IC50 [nM]
COc1c([C@H]2[C@H](C(=O)Nc3cc(S(C)(=O)=O)nn3C)O[C@@](C)(C(F)(F)F)[C@H]2C)ccc(F)c1F [Compound 211, (2R,3S,4S,5R)-3-(3,4-difluoro-2-methoxyphenyl)-4,5-dimethyl-N-(1-methyl-3-(methylsulfonyl)-1H-pyrazol-5-yl)-5-(trifluoromethyl)tetrahydrofuran-2-carboxamide] | < 10
C[C@H]1[C@@H](c2ccc(F)c(F)c2OC(F)F)[C@H](C(=O)Nc2ccc(C(N)=O)nc2)O[C@@]1(C)C(F)(F)F (single isomer, unassigned) [Compound 94] | < 10
COc1c([C@H]2[C@H](C(=O)N[C@H]3C[C@@H]3c3cnn(C)c3)O[C@@](C)(C(F)(F)F)[C@H]2C)ccc(F)c1F (relative stereo) [Compound 267, rel-(2R*,3S*,4S*,5R*)-3-(3,4-difluoro-2-methoxyphenyl)-4,5-dimethyl-N-((1S,2R)-2-(1-methyl-1H-pyrazol-4-yl)cyclopropyl)-5-(trifluoromethyl)tetrahydrofuran-2-carboxamide] | < 10
COc1c([C@H]2[C@H](C(=O)Nc3ccnc(O[C@H]4COC[C@H]4O)c3)O[C@@](C)(C(F)(F)F)[C@H]2C)ccc(F)c1F (single isomer, unassigned) [Compound 240, rel-(2R*,3S*,4S*,5R*)-3-(3,4-difluoro-2-methoxyphenyl)-N-(2-(((3S,4R)-4-hydroxytetrahydrofuran-3-yl)oxy)pyridin-4-yl)-4,5-dimethyl-5-(trifluoromethyl)tetrahydrofuran-2-carboxamide] | < 10
CCOc1c([C@@H]2[C@@H](C(=O)Nc3ccnc(S(C)(=N)=O)c3)O[C@](C)(C(F)(F)F)[C@@H]2C)ccc(F)c1F (single isomer, unassigned) [Compound 11] | ≥ 1000
COc1c([C@H]2[C@H](C(=O)NC3CN(C)C3)O[C@@](C)(C(F)(F)F)[C@H]2C)ccc(F)c1F [Compound 278, (2R,3S,4S,5R)-3-(3,4-difluoro-2-methoxyphenyl)-4,5-dimethyl-N-(1-methylazetidin-3-yl)-5-(trifluoromethyl)tetrahydrofuran-2-carboxamide] | ≥ 1000
CCOc1c(C2C(C(=O)Nc3cc(S(C)(=N)=O)c[n+](C)c3)OC(C)(C(F)(F)F)C2C)ccc(F)c1F (centres unmarked) [Compound 114, 3-(2-ethoxy-3,4-difluoro-phenyl)-4,5-dimethyl-N-[1-methyl-5-(methylsulfonimidoyl)pyridin-1-ium-3-yl]-5-(trifluoromethyl)tetrahydrofuran-2-carboxamide] | 100 to 1000
COc1c(C2C(C(=O)Nc3ccncn3)OC(C)(C(F)(F)F)C2C)ccc(F)c1F (single isomer, unassigned) [Compound 36, 3-(3,4-difluoro-2-methoxy-phenyl)-4,5-dimethyl-N-pyrimidin-4-yl-5-(trifluoromethyl)tetrahydrofuran-2-carboxamide] | < 10
C[C@H]1[C@@H](c2ccc(F)c(F)c2O[C@H]2C[C@@H](O)C2)[C@H](C(=O)Nc2cncc(C#N)c2)O[C@@]1(C)C(F)(F)F [Compound 659, (2R,3S,4S,5R)-N-(5-cyanopyridin-3-yl)-3-(3,4-difluoro-2-((1S,3R)-3-hydroxycyclobutoxy)phenyl)-4,5-dimethyl-5-(trifluoromethyl)tetrahydrofuran-2-carboxamide] | 10 to 100
COc1c([C@H]2[C@H](C(=O)Nc3ccnc(S(N)(=O)=O)c3)O[C@@](C)(C(F)(F)F)[C@H]2C)ccc(F)c1F [Compound 188, (2R,3S,4S,5R)-3-(3,4-difluoro-2-methoxyphenyl)-4,5-dimethyl-N-(2-sulfamoylpyridin-4-yl)-5-(trifluoromethyl)tetrahydrofuran-2-carboxamide] | < 10
COc1c(C2C(C(=O)Nc3ccnc(S(=O)(=O)CCO)c3)OC(C)(C(F)(F)F)C2C)ccc(F)c1F (centres unmarked) [Compound 62, 3-(3,4-difluoro-2-methoxy-phenyl)-N-[2-(2-hydroxyethylsulfonyl)-4-pyridyl]-4,5-dimethyl-5-(trifluoromethyl)tetrahydrofuran-2-carboxamide] | < 10
C[C@H]1[C@@H](c2ccc(F)c(F)c2OC(F)F)[C@H](C(=O)Nc2ccn(C)c(=O)c2)O[C@@]1(C)C(F)(F)F (single isomer, unassigned) [Compound 78] | < 10

— US20240368135A1 (VERTEX PHARMACEUTICALS INCORPORATED, priority 2021, published 2024)
